Assay results taken from patent US9850203B2, “Autotaxin inhibitor compounds” (PharmAkea, Inc., priority 2013, dated 2017).

Target: human autotaxin (ATX) (Homo sapiens (Human), UniProt Q13822)
Test: Human Autotaxin Assay
Type: biochemical
Details: concentrated conditioned media from Hep3B cells; LPC substrate, choline release
Outline: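 Autotaxin source: Hep3B conditioned medium concentrated 20-fold, preincubated with compound 15 min at 37° C in lyso-PLD buffer (100 mM Tris pH 9, 500 mM NaCl, 5 mM MgCl2, 5 mM CaCl2, 0.05% Triton X-100, ±0.2% fatty-acid-free HSA). 100 uM LPC (14:0) then added, 1.5-3 hours at 37° C; choline release measured.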

Compound | IC50 [nM]
Cc1c(Sc2cccc(C(=O)O)c2F)c2ccc(Cl)c(F)c2n1CC(=O)N1CCC2(C1)OCCO2 [Compound 2-72, 3-((6-Chloro-7-fluoro-2-methyl-1-(2-oxo-2-(1,4-dioxa-7-azaspiro[4.4]nonan-7-yl)ethyl)-1H-indol-3-yl)thio)-2-fluorobenzoic acid] | ≤ 500
Cc1c(Sc2cccc(C(=O)O)c2F)c2ccc(Cl)c(F)c2n1CC(=O)N1CC[C@@H](CO)C1 [Compound 2-64, (R)-3-((6-Chloro-7-fluoro-1-(2-(3-(hydroxymethyl)pyrrolidin-1-yl)-2-oxoethyl)-2-methyl-1H-indol-3-yl)thio)-2-fluorobenzoic acid] | ≤ 500
Cc1c(Sc2cccc(C(=O)O)c2)c2ccc(Cl)c(F)c2n1CCC(=O)N1CCc2ccccc21 [Compound 1-26, 3-((6-Chloro-7-fluoro-1-(3-(indolin-1-yl)-3-oxopropyl)-2-methyl-1H-indol-3-yl)thio)benzoic acid] | ≤ 500
